Source: ChEMBL document CHEMBL5257076, “Design, synthesis, structure-activity relationship studies, and evaluation of novel GLS1 inhibitors” (Bioorg Med Chem Lett, 2023)
Active and inactive are the calls of the source. The calls are words filed in the database; no cut-off is given here.

Columns and labels:
[1] = molecular target: T1, Glutaminase kidney isoform, mitochondrial (Mus musculus) (UniProt D3Z7P3); experiment: Inhibition of GLS1 in mouse kidney extract at 10 mM; type: tissue-based
T1 sequence (whole entry): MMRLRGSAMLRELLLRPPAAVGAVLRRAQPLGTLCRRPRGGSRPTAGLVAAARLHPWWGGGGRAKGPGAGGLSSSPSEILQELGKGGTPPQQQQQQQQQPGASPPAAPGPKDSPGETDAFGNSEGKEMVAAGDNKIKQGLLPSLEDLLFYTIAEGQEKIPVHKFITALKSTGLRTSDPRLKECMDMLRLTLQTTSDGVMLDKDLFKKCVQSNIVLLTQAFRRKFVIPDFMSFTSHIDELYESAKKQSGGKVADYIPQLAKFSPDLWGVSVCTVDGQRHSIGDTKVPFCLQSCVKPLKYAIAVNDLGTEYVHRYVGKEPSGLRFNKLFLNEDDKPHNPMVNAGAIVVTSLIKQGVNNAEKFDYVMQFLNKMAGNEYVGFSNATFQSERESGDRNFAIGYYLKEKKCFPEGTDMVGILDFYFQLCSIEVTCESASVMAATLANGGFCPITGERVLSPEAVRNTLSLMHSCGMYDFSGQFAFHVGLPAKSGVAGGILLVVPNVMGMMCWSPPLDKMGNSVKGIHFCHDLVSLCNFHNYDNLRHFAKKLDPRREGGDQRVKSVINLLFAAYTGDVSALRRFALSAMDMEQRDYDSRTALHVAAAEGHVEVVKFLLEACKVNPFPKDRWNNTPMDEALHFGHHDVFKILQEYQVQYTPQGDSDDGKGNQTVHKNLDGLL

[2] = molecular target: T1, Glutaminase kidney isoform, mitochondrial (Mus musculus); experiment: Inhibition of GLS1 in mouse kidney extract at 10 mM relative to control; type: tissue-based
[3] = molecular target: T1, Glutaminase kidney isoform, mitochondrial (Mus musculus); experiment: Inhibition of mouse recombinant GLS1 relative to control; conditions: concentration not given here
[4] = molecular target: T2, Glutaminase kidney isoform, mitochondrial (Homo sapiens) (UniProt O94925); experiment: Inhibition of human recombinant GLS1 at 10 mM relative to control
T2 sequence (whole entry): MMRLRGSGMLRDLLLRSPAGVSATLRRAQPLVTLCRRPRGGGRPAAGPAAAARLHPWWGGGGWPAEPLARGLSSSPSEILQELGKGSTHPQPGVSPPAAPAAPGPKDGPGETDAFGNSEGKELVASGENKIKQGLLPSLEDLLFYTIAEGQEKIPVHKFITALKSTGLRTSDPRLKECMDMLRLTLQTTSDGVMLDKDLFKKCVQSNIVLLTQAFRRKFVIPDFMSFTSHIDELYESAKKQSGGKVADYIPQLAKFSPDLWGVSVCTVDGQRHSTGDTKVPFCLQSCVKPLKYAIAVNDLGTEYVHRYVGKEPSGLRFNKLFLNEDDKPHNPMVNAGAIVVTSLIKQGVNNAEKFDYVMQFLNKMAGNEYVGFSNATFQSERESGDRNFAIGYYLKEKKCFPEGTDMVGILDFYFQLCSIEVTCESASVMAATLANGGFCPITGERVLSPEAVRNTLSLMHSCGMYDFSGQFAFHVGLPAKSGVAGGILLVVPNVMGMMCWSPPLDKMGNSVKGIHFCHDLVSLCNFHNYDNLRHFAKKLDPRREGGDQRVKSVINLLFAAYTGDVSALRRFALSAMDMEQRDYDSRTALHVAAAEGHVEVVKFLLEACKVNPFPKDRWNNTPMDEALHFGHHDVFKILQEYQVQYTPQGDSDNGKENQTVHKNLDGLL

[5] = molecular target: T1, Glutaminase kidney isoform, mitochondrial (Mus musculus); experiment: Inhibition of GLS1 in mouse kidney extract at 1 mM relative to control; type: tissue-based
[6] = molecular target: T1, Glutaminase kidney isoform, mitochondrial (Mus musculus); experiment: Inhibition of mouse recombinant GLS1 glutaminase activity at 1 mM
[7] = molecular target: T2, Glutaminase kidney isoform, mitochondrial (Homo sapiens); experiment: Inhibition of human recombinant GLS1 at 1 mM relative to control

inhibition [1]	SMILES	further results
inactive	O=C(c1cc(Cc2ccccc2)n[nH]1)N1CCCC1	
	O=C(N[C@H]1CC[C@H](O)CC1)c1cc(Cc2ccc(F)cc2)n[nH]1	inhibition [2]: 90.1%; inhibition [3]: 73.2%; inhibition [4]: 94.6%
inactive	CN(C)C(=O)c1cc(Cc2ccccc2)n[nH]1	
	[N-]=[N+]=CC(=O)CC[C@H](N)C(=O)O	inhibition [5]: 65.5%; inhibition [6]: Active; inhibition [3]: 55.5%; inhibition [7]: 84.1%
inactive	O=C(Nc1ccccc1)c1cc(Cc2ccccc2)n[nH]1	
inactive	CON(C)C(=O)c1cc(Cc2ccccc2)n[nH]1	
inactive	O=C1CCC(NC(=O)c2cc(Cc3ccccc3)n[nH]2)CC1	
	O=C(N[C@H]1CC[C@H](O)CC1)c1cc(-c2ccccc2)n[nH]1	inhibition [2]: 93.3%; inhibition [3]: 81.4%; inhibition [4]: 97.1%
inactive	O=C(c1cc(Cc2ccccc2)n[nH]1)N1CCOCC1	
Active	O=C(N[C@H]1CC[C@H](O)CC1)c1ncc(-c2ccccc2)[nH]1	
inactive	O=C(c1cc(Cc2ccccc2)n[nH]1)N1CCCCC1	
inactive	O=C(NCCO)c1cc(Cc2ccccc2)n[nH]1	
inactive	O=C(N[C@H]1CC[C@H](O)CC1)c1ccc(-c2ccccc2)[nH]1	
	O=C(N[C@H]1CC[C@H](O)CC1)c1cc(Cc2ccccc2)n[nH]1	inhibition [2]: 99.4%; inhibition [3]: 19.7%
inactive	CNC(=O)c1cc(Cc2ccccc2)n[nH]1	
inactive	O=C(c1cc(Cc2ccccc2)n[nH]1)N1CCCCCC1	
inactive	O=C(c1cc(Cc2ccccc2)n[nH]1)N1CCC(O)CC1	
	O=C(N[C@H]1CC[C@H](O)CC1)c1cc(CCc2ccccc2)n[nH]1	inhibition [2]: 58.6%
	NNC(=O)c1cc(-c2ccccc2)n[nH]1	inhibition [2]: 52.6%
inactive	O=C(N[C@H]1CC[C@H](O)CC1)c1cc(-c2ccccc2)c[nH]1	
